# Patent US4235803A (priority 1978, dated 1980)
# Like-named read-outs stand apart in the source and are kept apart here.
# Experiments:
# [1] = system: S-180 sc. sarcoma; assay: Tumor inhibiting effect on solid tumors: S-180 sc. sarcoma; assay type: in vivo, mouse
# Experimental: (§1) Our tests were performed on various transplantable mouse and rat tumors. The following tumor strains were applied:
# Mouse: SC-180 sc. sarcoma (solid)
# (§2) The tests were always performed on animals of both sexes. At the beginning of the tests the average body weight of mice was 20 to 22 g, whereas that of rats 150 to 180 g. The animals were kept in plastic cages and fed with a standard laboratory animal feed (LATI, Godollo, Hungary). The animals received water ad libitum.
# (§3) Solid tumors were transplanted by a subcutaneous implantation of tumor chips. Ascites type tumors were transplanted with 10^7 cells received from the ascites, whereas leukaemia type tumors were transplanted with spleen suspension. The treatment of the animals was started 24 hours after transplantation, with the only exception of Harding-Passey melanoma, when treatment was started on the 4th day after transplantation.
# (§4) *Performed on groups of 8 animals
# [2] = system: Yoshida sc. sarcoma; assay: Comparison of the ED50 values on Yoshida sc. sarcoma of rats (transplanted solid tumor); assay type: in vivo, rat; settings: for ED50: Rattus norvegicus, Yoshida sc. sarcoma of rats; for Relative activity: calculated by comparing the ED50 values
# Experimental: as §1
# Rat: Yoshida sc. sarcoma
# as §2, §3
# [3] = system: peripheral blood count (granulocytes, lymphocytes); assay: Effect on peripheral blood count of rats (haematopoiesis); settings: reference substances; in words
# [4] = system: S-180 sc. sarcoma; settings: 200 mg/kg, 8 × i.p.; cited from earlier work
# [5] = system: NK/Ly lymphoma; settings: 125 mg/kg, 6 × i.p.; cited from earlier work
# [6] = system: Harding-Passey melanoma; assay: Tumor inhibiting effect on solid tumors: Harding-Passey melanoma; assay type: in vivo, mouse; settings: treatment from 4th day after transplantation
# Experimental: as §1
# Harding-Passey melanoma
# as §2, §3, §4
# [7] = system: Walker sc. carcino-sarcoma; settings: 100 mg/kg, 6 × i.p.; cited from earlier work
# [8] = system: CFLP and BDF1 mice; settings: same animals, Nemeth et al. 1972, cited from earlier work
# [9] = system: transplantable mouse and rat tumors; assay: Cytostatic effect / growth inhibition on transplantable mouse and rat tumors (overall statements); assay type: in vivo; settings: in words
# Experimental: as §1, §2, §3
# [10] = system: Walker sc. carcino-sarcoma; assay: Tumor inhibiting effect on solid tumors: Walker sc. sarcoma; assay type: in vivo, rat; settings: 10 mg/kg
# Experimental: as §1
# Walker sc. carcino-sarcoma
# as §2, §3, §4
# [11] = system: Ehrlich asc. carcinoma; assay: Tumor inhibiting effect on ascites type tumors: Ehrlich ascites carcinoma; assay type: in vivo, mouse
# Experimental: as §1, §2, §3
# Healing=tumor-free survival of 90 days after transplantation
# [12] = system: NK/Ly lymphoma; assay: Tumor inhibiting effect on ascites type tumors: NK/Ly lymphoma; assay type: in vivo, mouse; settings: 30 mg/kg, 4 × i.p.
# Experimental: as §1, §2, §3
# [13] = Acute toxicity (LD50) on CFLP and BDF1 mice; settings: mouse, in vivo
# Experimental: (§5) The tests were performed on groups consisting of 10 mice (5 males and 5 females), and the animals were kept under observation for 3 weeks.
# [14] = system: CFLP and BDF1 mice; assay: Acute toxicity (LD50) on CFLP and BDF1 mice; settings: in words
# Experimental: as §5
compound,measurement,setting,value
"1,6-dimesyl-1,6-dideoxy-D-mannitol [reference compound]",Inhibition,"[1]; 300 mg/kg, 6 × i.p.",31
same,Inhibition (toxicity reported in this column),"[1]; 500 mg/kg, 6 × i.p.",toxic
"CS(=O)(=O)OC[C@@H](O)[C@@H](O)[C@H](O)[C@H](O)COS(C)(=O)=O [1,6-Dimesyl-D-mannitol (Mannogranol), 1,6-dimesyl-D-mannitol]",ED50,[2]; ip,500 mg/kg
same,ED50,[2]; po,600 mg/kg
"O[C@@H]([C@H](O)[C@H](O)CBr)[C@H](O)CBr [1,6-dibromo-1,6-dideoxy-D-mannitol]",ED50,[2]; ip,490 mg/kg
same,ED50,[2]; po,170 mg/kg
same,Relative activity,[2]; i.p.,0.04
same,Relative activity,[2]; p.o.,0.41
same,effect on haematopoiesis (formation of myeloid leukocytes),[3],rather strong and selective action on the formation of myeloid leukocytes
"O[C@H]([C@H](O)[C@@H](O)CBr)[C@H](O)CBr [1,6-dibromo-1,6-dideoxy-dulcitol]",Inhibition,[4],57
same,ED50,[2]; ip,50 mg/kg
same,Relative activity,[2]; i.p.,0.4
same,Prol. of life span,[5],90%
same,Inhibition,"[6]; 200 mg/kg, 13 × i.p.",67
same,Inhibition,[7],95
same,effect on haematopoiesis (formation of myeloid leukocytes),[3],rather strong and selective action on the formation of myeloid leukocytes
same,LD50 value,[8]; i.p.,900 mg/kg
same,LD50 value,[8]; p.o.,1500 mg/kg
"CO[C@@H]([C@H](OC)[C@H](O)COS(C)(=O)=O)[C@H](O)COS(C)(=O)=O [compound of formula (I), 1,6-dimesyl-3,4-dimethyl-D-mannitol]",cytostatic effect,[9],strong cytostatic effect
same,"cytostatic effect compared with Mannogranol, Myelobromol and Elobromol",[9],even more effective
same,cytostatic effect,"[9]; listed as 1,6-dimesyl-3,4-dimethyl-D-mannitol",extremely potent cytostatic agent
same,inhibition of the growth of solid tumors,"[9]; solid tumors, even in very low dosages compared to the toxic one",significantly inhibits the growth of solid tumors
same,Inhibition,[10]; 5 × i.p.,90
same,Inhibition,[10]; 5 × p.o.,97
same,ED50,[2]; ip,20 mg/kg
same,ED50,[2]; po,70 mg/kg
same,Prol. of life span,"[11]; 100 mg/kg, 4 × i.p.",99.6%
same,effect on Ehrlich ascites tumor,[11]; in words,healing effect
same,Inhibition,"[6]; 30 mg/kg, 10 × p.o.",31
same,Inhibition,"[6]; 100 mg/kg, 10 × p.o.",52
same,Prol. of life span,[12],101%
same,Inhibition,"[1]; 100 mg/kg, 4 × p.o.",50
same,Inhibition,"[1]; 200 mg/kg, 6 × p.o.",70
same,LD50 at 504 h,[13]; ip,1000 mg/kg
same,LD50 at 504 h,[13]; po,1100 mg/kg
same,toxicity,[14],low toxicity
same,oral resorption,[14]; inferred from i.p. vs oral LD50,excellent oral resorption
